This experiment deals with T1, human APJ receptor (Homo sapiens, UniProt P35414).
T1 construct: expressed in transfected cells; host or cells: HEK293
T1 sequence (P35414 1-380): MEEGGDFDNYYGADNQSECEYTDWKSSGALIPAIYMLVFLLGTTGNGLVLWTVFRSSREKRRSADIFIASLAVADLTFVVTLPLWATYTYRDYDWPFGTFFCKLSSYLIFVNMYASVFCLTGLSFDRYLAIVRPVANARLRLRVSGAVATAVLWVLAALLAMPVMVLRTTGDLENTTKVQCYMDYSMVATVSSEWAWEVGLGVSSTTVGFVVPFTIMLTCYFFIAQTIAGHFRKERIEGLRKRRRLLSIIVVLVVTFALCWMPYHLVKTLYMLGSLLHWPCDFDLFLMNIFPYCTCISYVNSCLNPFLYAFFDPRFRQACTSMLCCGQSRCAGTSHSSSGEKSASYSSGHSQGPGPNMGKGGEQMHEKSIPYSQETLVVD
Put plainly: Intracellular cAMP Accumulation Assay (APJ hcAMP, HTRF). In kind it is cell-based. As to the method:
Intracellular cAMP Accumulation Assay
HEK293 cells stably expressing human APJ receptor were used to assess the activity of compounds. Cultured cells were detached and resuspended in the cAMP
Homogeneous Time-Resolved Fluorescence (HTRF) assay buffer (Cisbio cat; #62AM4PEJ). The assay was performed in 384-well assay plates (Perkin-Elmer; cat #6008289) according to assay protocol provided by the manufacturer. Serial dilutions of a compound together with assay buffer containing […] IBMX and 2 μM forskolin were added to each well containing 5,000 cells and incubated for 30 minutes at room temperature. Subsequently, cAMP D2 reagent was added in the lysis buffer followed by the EuK antibody (Cisbio; cat #62AM4PEJ) and incubated for 60 min. The fluorescence emission ratio was measured using fluorometer. The intracellular cAMP concentrations (compound-stimulated inhibition of forskolin-mediated cAMP production) were calculated by extrapolation from a standard curve using known cAMP concentrations. The EC50 values were obtained by fitting the data to a sigmoidal concentration-response curve with variable slope.
The EC50 value of each compound is presented at the end of the example description.
The biological activity of the exemplified compounds of this invention determined by the assay described above is shown at the end of each example.

Setting [1] is: human APJ, intracellular cAMP accumulation, read-out: hAPJ cAMP EC50 Potency range.
Where [2] appears, read: HEK293 cells stably expressing human APJ receptor, inhibition of forskolin-mediated cAMP production, read-out: Human APJ cAMP EC50 potency range.
Where [3] appears, read: read-out: hAPJ cAMP EC50 Potency range, human APJ, intracellular cAMP accumulation.

We go through 24 compounds from patent US10590113B2, “6-hydroxy-4-oxo-1,4-dihydropyrimidine-5-carboxamides as APJ agonists” (priority 2016, dated 2020).

Each structure is given as a SMILES string. Like-named read-outs stand apart in the source and are kept apart here.

The term EC50 denotes the concentration at which the effect is half-maximal. In the case of `CCOCc1nc(=O)c(C(=O)N2CCC(c3cccc(Cl)c3)C2)c(O)n1-c1c(OC)cccc1OC` (racemic) [Example 26, 5-(3-(3-chlorophenyl)pyrrolidine-1-carbonyl)-1-(2,6-dimethoxyphenyl)-2-(ethoxymethyl)-6-hydroxypyrimidin-4(1H)-one], the 50% effective concentration (EC50) under setting [1] lay within 0.01 to 10 nM.
Turning to `COc1cccc(OC)c1-n1c(CC2CC2)nc(=O)c(C(=O)N2CCC(c3cccc(Cl)c3)C2)c1O` (racemic) [Example 28, 5-(3-(3-chlorophenyl)pyrrolidine-1-carbonyl)-2-(cyclopropylmethyl)-1-(2,6-dimethoxyphenyl)-6-hydroxypyrimidin-4(1H)-one], under setting [1], the EC50 is 0.01 to 10 nM.
Consider `CCCCc1nc(=O)c(C(=O)N2CCC(Cc3ccccc3)C2)c(O)n1-c1c(OC)cccc1OC` (racemic) [Example 73, 5-(3-benzylpyrrolidine-1-carbonyl)-2-butyl-1-(2,6-dimethoxyphenyl)-6-hydroxy-1,4-dihydropyrimidin-4-one], for which the EC50 under setting [1] lay in the range of 0.01 to 10 nM.
As to `CCCCc1nc(O)c(C(=O)N2CCC(c3ccc(F)cc3)C2)c(=O)n1-c1c(CC)cccc1CC` (racemic) [Example 89, 2-butyl-3-(2,6-diethylphenyl)-5-[3-(4-fluorophenyl)pyrrolidine-1-carbonyl]-6-hydroxy-3,4-dihydropyrimidin-4-one], the concentration giving a half-maximal response (EC50) under setting [1] fell in the range of 0.01 to 10 nM.
Turning to `C=CCCc1nc(O)c(C(=O)N2CC[C@H](c3ccccc3)C2)c(=O)n1-c1c(C)cccc1OC` (single isomer, unassigned) [Example 8], under setting [2], the EC50 lay in the range of 0.01 to 10 nM.
Same read-out and setting: under `C=CCCc1nc(O)c(C(=O)N2CC[C@H](c3ccccc3)C2)c(=O)n1-c1c(C)cccc1OC` (single isomer, unassigned) [Example 8″] stands 0.01 to 10 nM.
With `COc1cccc(OC)c1-n1c(COC2CC2)nc(=O)c(C(=O)N2CCC(c3ccccc3F)C2)c1O` (single isomer, unassigned) [Example 10, 2-(cyclopropoxymethyl)-1-(2,6-dimethoxyphenyl)-5-(3-(2-fluorophenyl)pyrrolidine-1-carbonyl)-6-hydroxypyrimidin-4(1H)-one], under setting [1], the half-maximal effective concentration (EC50) is 0.01 to 10 nM.
Turning to `COc1cccc(OC)c1-n1c(COC2CC2)nc(=O)c(C(=O)N2CCC(c3ccccc3F)C2)c1O` (single isomer, unassigned) [Example 13, 2-(cyclopropoxymethyl)-1-(2,6-dimethoxyphenyl)-5-(3-(2-fluorophenyl)pyrrolidine-1-carbonyl)-6-hydroxy-pyrimidin-4(1H)-one], the half-maximal effective concentration (EC50) under setting [1] fell in the range of 0.01 to 10 nM.
As for `CCc1cccc(CC)c1-n1c(COC(C)C)nc(=O)c(C(=O)N2CCC(c3ccccn3)C2)c1O` (single isomer, unassigned) [Example 18, 1-(2,6-diethylphenyl)-6-hydroxy-2-(isopropoxymethyl)-5-(3-(pyridin-2-yl)pyrrolidine-1-carbonyl)pyrimidin-4(1H)-one], the 50% effective concentration (EC50) under setting [1] was in the range of 0.01 to 10 nM.
The same measure, in the same setting: the figure for `COc1cccc(OC)c1-n1c(COC2CC2)nc(=O)c(C(=O)N2CCC(c3ccccc3C)C2)c1O` (single isomer, unassigned) [Example 19, 2-(cyclopropoxymethyl)-1-(2,6-dimethoxyphenyl)-6-hydroxy-5-(3-(o-tolyl)pyrrolidine-1-carbonyl)pyrimidin-4(1H)-one] is 0.01 to 10 nM; for `COc1cccc(OC)c1-n1c(COC2CC2)nc(=O)c(C(=O)N2CCC(c3ccc(Cl)cc3)C2)c1O` (single isomer, unassigned) [Example 21, 5-(3-(4-chlorophenyl)pyrrolidine-1-carbonyl)-2-(cyclopropoxymethyl)-1-(2,6-dimethoxyphenyl)-6-hydroxypyrimidin-4(1H)-one] it is 0.01 to 10 nM.
Regarding `COc1cccc(OC)c1-n1c(COC2CC2)nc(=O)c(C(=O)N2CCC(c3ccccc3Cl)C2)c1O` (single isomer, unassigned) [Example 22, 5-(3-(2-chlorophenyl)pyrrolidine-1-carbonyl)-2-(cyclopropoxymethyl)-1-(2,6-dimethoxyphenyl)-6-hydroxypyrimidin-4(1H)-one], the EC50 under setting [1] was 0.01 to 10 nM.
Consider `CCc1cccc(CC)c1-n1c(COC(C)C)nc(=O)c(C(=O)N2CCC(c3ccccc3F)C2)c1O` (single isomer, unassigned) [Example 25, 1-(2,6-diethylphenyl)-5-(3-(2-fluorophenyl)pyrrolidine-1-carbonyl)-6-hydroxy-2-(isopropoxymethyl) pyrimidin-4(1H)-one], for which the 50% effective concentration (EC50) under setting [1] is 0.01 to 10 nM.
In turn, `CCCCc1nc(=O)c(C(=O)N2CCC(c3ccc(Cl)cn3)C2)c(O)n1-c1c(OC)cccc1OC` (single isomer, unassigned) [Example 41, 2-butyl-5-(3-(5-chloropyridin-2-yl)pyrrolidine-1-carbonyl)-1-(2,6-dimethoxyphenyl)-6-hydroxypyrimidin-4(1H)-one] displayed a half-maximal effective concentration (EC50) of 0.01 to 10 nM.
Turning to `COc1cccc(OC)c1-n1c(COC(C)(C)C)nc(=O)c(C(=O)N2CCC(c3ccccc3Cl)C2)c1O` (single isomer, unassigned) [Example 42, 2-[(tert-butoxy)methyl]-5-[3-(2-chlorophenyl)pyrrolidine-1-carbonyl]-1-(2,6-dimethoxyphenyl)-6-hydroxy-1,4-dihydropyrimidin-4-one], the concentration for a half-maximal effect (EC50) under setting [1] lay within 0.01 to 10 nM.
As to `CCCCc1nc(=O)c(C(=O)N2CCC(c3ccccc3Cl)C2)c(O)n1-c1c(OC)cccc1OC` (single isomer, unassigned) [Example 43, 2-butyl-5-[3-(2-chlorophenyl)pyrrolidine-1-carbonyl]-1-(2,6-dimethoxyphenyl)-6-hydroxy-1,4-dihydropyrimidin-4-one], the EC50 under setting [1] fell in the range of 0.01 to 10 nM.
Take `CCCCc1nc(=O)c(C(=O)N2CCC(c3ccc(Cl)cc3)C2)c(O)n1-c1c(OC)cccc1OC` (single isomer, unassigned) [Example 45, 2-butyl-5-[3-(4-chlorophenyl)pyrrolidine-1-carbonyl]-1-(2,6-dimethoxyphenyl)-6-hydroxy-1,4-dihydropyrimidin-4-one]: the concentration giving a half-maximal response (EC50) under setting [3] fell in the range of 0.01 to 10 nM.
`CCCCc1nc(=O)c(C(=O)N2CCC(c3ccc(Cl)cc3)C2)c(O)n1-c1c(OC)cccc1OC` (single isomer, unassigned) [Example 46, 2-butyl-5-[3-(4-chlorophenyl)pyrrolidine-1-carbonyl]-1-(2,6-dimethoxyphenyl)-6-hydroxy-1,4-dihydropyrimidin-4-one]: the EC50 is 0.01 to 10 nM.
Take `CCCCc1nc(=O)c(C(=O)N2CCC(c3ccncc3)C2)c(O)n1-c1c(OC)cccc1OC` (single isomer, unassigned) [Example 47, 2-butyl-1-(2,6-dimethoxyphenyl)-6-hydroxy-5-[3-(pyridin-4-yl)pyrrolidine-1-carbonyl]-1,4-dihydropyrimidin-4-one]: the concentration for a half-maximal effect (EC50) was 0.01 to 10 nM.
As for `CCCCc1nc(=O)c(C(=O)N2CCC(c3ccncc3)C2)c(O)n1-c1c(OC)cccc1OC` (single isomer, unassigned) [Example 48, 2-butyl-1-(2,6-dimethoxyphenyl)-6-hydroxy-5-[3-(pyridin-4-yl)pyrrolidine-1-carbonyl]-1,4-dihydropyrimidin-4-one], under setting [3], the EC50 was in the range of 0.01 to 10 nM.
For the compound `COc1cccc(OC)c1-n1c(COC(C)(C)C)nc(=O)c(C(=O)N2CCC(c3ccccc3F)C2)c1O` (single isomer, unassigned) [Example 50, 2-[(tert-butoxy)methyl]-1-(2,6-dimethoxyphenyl)-5-[3-(2-fluorophenyl)pyrrolidine-1-carbonyl]-6-hydroxy-1,4-dihydropyrimidin-4-one], the EC50 under setting [1] was in the range of 0.01 to 10 nM.
Still for that read-out and setting: under `CCCCc1nc(=O)c(C(=O)N2CCC(c3ccccc3F)C2)c(O)n1-c1c(OC)cccc1OC` (single isomer, unassigned) [Example 52, 2-butyl-1-(2,6-dimethoxyphenyl)-5-[3-(2-fluorophenyl)pyrrolidine-1-carbonyl]-6-hydroxy-1,4-dihydropyrimidin-4-one] stands 0.01 to 10 nM; under `CCCCc1nc(=O)c(C(=O)N2CCC(c3ccccc3F)C2)c(O)n1-c1c(OC)cccc1OC` (single isomer, unassigned) [Example 53, 2-butyl-1-(2,6-dimethoxyphenyl)-5-[3-(2-fluorophenyl)pyrrolidine-1-carbonyl]-6-hydroxy-1,4-dihydropyrimidin-4-one], 0.01 to 10 nM; under `CCOCc1nc(=O)c(C(=O)N2CCC(c3ccccn3)C2)c(O)n1-c1c(OC)cccc1OC` (single isomer, unassigned) [Example 54, 1-(2,6-dimethoxyphenyl)-2-(ethoxymethyl)-6-hydroxy-5-[3-(pyridin-2-yl)pyrrolidine-1-carbonyl]-1,4-dihydropyrimidin-4-one], 0.01 to 10 nM.
